Tested on: 817829-284-R-J1-PDC multi-cell spheroid viability
Assay: Anticancer human tumor 817829-284-R-J1-PDC patient-derived colon adenocarcinoma cell line growth inhibition [PI3K]
Settings: for IC50: curve of first compound; for viability, T/C: stronger effect = lower value
Description: Combinatorial screen of targeted agents with the PI3K inhibitors inavolisib, alpelisib, duvelisib, and copanlisib in multi-cell type tumor spheroids
A high-throughput screen of multi-cell type tumor spheroids was designed to identify active combinations of targeted small molecules and PI3K pathway inhibitors. Complex spheroids include a stromal component modeled by human endothelial cells (HUVEC) and fibroblasts modeled by human mesenchymal stem cells (MSCs). The concentration ranges selected for each drug and investigational agent were based upon clinically achievable concentrations if the clinical Cmax of the agent was known.
Compounds. The drugs and investigational agents: inavolisib (NSC800729), alpelisib (NSC765974), duvelisib (NSC772469), copanlisib (NSC816437), ipatasertib (NSC767898), afuresertib (NSC778305), talazoparib (NSC767125), sapanisertib (NSC764658), selumetinib (NSC741078), tovorafenib (DAY101, NSC766906), vemurafenib (NSC761431), ravoxertinib (NSC781343), sotorasib (NSC818433), MRTX1133 (NSC 836407), abemaciclib (NSC 768073), palbociclib (NSC758247), venetoclax (NSC 766270), SY5609 (NSC837396), enzalutamide (NSC755605), and darolutamide (NSC825331), were obtained from the National Cancer Institute (NCI) Developmental Therapeutics Program Chemical Repository. The FDA-approved anticancer drug set is available from the NCI Developmental Therapeutics Program. […] The stock solutions were prepared in dimethyl sulfoxide (DMSO, Sigma-Aldrich, St. Louis, MO, cat. D2650) at 800-fold the tested concentration and stored at -70 degrees C prior to their use. All drugs and investigational agents were tested over a range starting from a high concentration at or near the clinical Cmax and decreasing in half-log increments. If the clinical Cmax for an agent had not been determined, the highest concentration tested was 10 microM.
Cell Culture. All cells were maintained in an incubator at 37 degrees C and 5% CO2 with 95% humidity. The PDC lines were cultured according to standard operating procedures established by the NCI PDMR (https://pdmr.cancer.gov/sops/default.htm). All PDCs were thawed and cultured in Matrigel-coated flasks prepared with a working solution of 1X Ham's F-12 nutrient mix, without supplementation (Invitrogen, Waltham, MA, cat. 11765054), 100 U/mL penicillin-streptomycin (Invitrogen, cat. 15140122), and 2.5% Matrigel (Corning Inc., Corning, NY, cat. 354248) for the first three passages. The 354836-022-R-J1-PDC, 475296-252-R-J1-PDC, and 997726-040-R-J2-PDC lines were cultured in 6A media, which includes advanced DMEM/F-12 (Thermo Fisher Scientific, cat. 12634028), 10 mM HEPES (Thermo Fisher Scientific, cat. 15630080), 1X GlutaMAX supplement (Thermo Fisher Scientific, cat. 35050061), 0.1 mg/mL primocin (InvivoGen, San Diego, CA, cat. ant-pm-2), 10% defined fetal bovine serum, heat inactivated (HyClone Laboratories Inc., Logan, UT, cat. SH30070.03HI), 50% L-WRN conditioned media (ATCC, cat. CRL-3276), 1.25 mM N-Acetyl-L-cysteine (Sigma-Aldrich, cat. A9165), 10 mM nicotinamide (Sigma-Aldrich, cat. N0636), 1X B-27 supplement (Thermo Fisher Scientific, cat. 17504044), 1X N-2 supplement (Thermo Fisher Scientific, cat. 17502048), and 10 microM Y-27632 dihydrochloride (Tocris Bioscience, Bristol, United Kingdom, cat. 1254). The 624824-186-R-J2-PDC line was cultured in 6C/Colon 1B media, which includes all 6A media components plus 50 ng/mL human EGF recombinant protein (Thermo Fisher Scientific, cat. PHG0311). […]

[1] = second compound 0.00316 µM, first compound 0.0316 µM
[2] = second compound 0.00316 µM, first compound 0.1 µM
[3] = second compound 0.01 µM, first compound 0.0316 µM
[4] = second compound 0.01 µM, first compound 0.1 µM
[5] = second compound 0.0316 µM, first compound 0.0316 µM
[6] = second compound 0.0316 µM, first compound 0.1 µM
[7] = second compound 0.1 µM, first compound 0.0316 µM
[8] = second compound 0.1 µM, first compound 0.1 µM
[9] = second compound 0.316 µM, first compound 0.0316 µM
[10] = second compound 0.316 µM, first compound 0.1 µM
[11] = second compound 1 µM, first compound 0.0316 µM
[12] = second compound 1 µM, first compound 0.1 µM
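Also: spheroids exposed to agents for seven days before readout.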
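For viability, T/C in this document: percent of vehicle DMSO control viability which is 100%.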

CC(C)n1nc(-c2ccc3oc(N)nc3c2)c2c(N)ncnc21 + CC(Nc1ccc2c(c1)OCCn1cc(N3C(=O)OCC3C(F)F)nc1-2)C(N)=O
IC50 (second compound 0.00316 µM): 6.7 nM | IC50 (second compound 0.01 µM): 22.8 nM | IC50 (second compound 0.0316 µM): 8.64 nM | IC50 (second compound 0.1 µM): 4.55 nM | IC50 (second compound 0.316 µM): 4.35 nM | IC50 (second compound 1 µM): < 0.316 nM | viability, T/C (second compound 0.00316 µM, first compound 0.000316 µM): 112% | viability, T/C (second compound 0.00316 µM, first compound 0.001 µM): 51.6% | viability, T/C (second compound 0.00316 µM, first compound 0.00316 µM): 65.3% | viability, T/C (second compound 0.00316 µM, first compound 0.01 µM): 60.2% | viability, T/C [1]: 27.9% | viability, T/C [2]: 16.2% | viability, T/C (second compound 0.01 µM, first compound 0.000316 µM): 60.2% | viability, T/C (second compound 0.01 µM, first compound 0.001 µM): 63.8% | viability, T/C (second compound 0.01 µM, first compound 0.00316 µM): 69.5% | viability, T/C (second compound 0.01 µM, first compound 0.01 µM): 68.1% | viability, T/C [3]: 43.9% | viability, T/C [4]: 14.7% | viability, T/C (second compound 0.0316 µM, first compound 0.000316 µM): 114% | viability, T/C (second compound 0.0316 µM, first compound 0.001 µM): 73.1% | viability, T/C (second compound 0.0316 µM, first compound 0.00316 µM): 73.9% | viability, T/C (second compound 0.0316 µM, first compound 0.01 µM): 50.3% | viability, T/C [5]: 28.1% | viability, T/C [6]: 12.8% | viability, T/C (second compound 0.1 µM, first compound 0.000316 µM): 59.7% | viability, T/C (second compound 0.1 µM, first compound 0.001 µM): 38.7% | viability, T/C (second compound 0.1 µM, first compound 0.00316 µM): 76.4% | viability, T/C (second compound 0.1 µM, first compound 0.01 µM): 32% | viability, T/C [7]: 32.1% | viability, T/C [8]: 13.8% | viability, T/C (second compound 0.316 µM, first compound 0.000316 µM): 53.7% | viability, T/C (second compound 0.316 µM, first compound 0.001 µM): 68.9% | viability, T/C (second compound 0.316 µM, first compound 0.00316 µM): 48.7% | viability, T/C (second compound 0.316 µM, first compound 0.01 µM): 41.7% | viability, T/C [9]: 22.2% | viability, T/C [10]: 13.8% | viability, T/C (second compound 1 µM, first compound 0.000316 µM): 56.8% | viability, T/C (second compound 1 µM, first compound 0.001 µM): 30.8% | viability, T/C (second compound 1 µM, first compound 0.00316 µM): 38.3% | viability, T/C (second compound 1 µM, first compound 0.01 µM): 27.3% | viability, T/C [11]: 79.8% | viability, T/C [12]: 18.4%

CCCS(=O)(=O)Nc1ccc(F)c(C(=O)c2c[nH]c3ncc(-c4ccc(Cl)cc4)cc23)c1F + CC(Nc1ccc2c(c1)OCCn1cc(N3C(=O)OCC3C(F)F)nc1-2)C(N)=O
IC50 (second compound 0.00316 µM): 2230 nM | IC50 (second compound 0.01 µM): 1680 nM | IC50 (second compound 0.0316 µM): 3740 nM | IC50 (second compound 0.1 µM): < 31.6 nM | IC50 (second compound 0.316 µM): < 31.6 nM | IC50 (second compound 1 µM): < 31.6 nM | viability, T/C [1]: 67% | viability, T/C [2]: 57.9% | viability, T/C (second compound 0.00316 µM, first compound 0.316 µM): 61.3% | viability, T/C (second compound 0.00316 µM, first compound 1 µM): 51.6% | viability, T/C (second compound 0.00316 µM, first compound 3.16 µM): 49.6% | viability, T/C (second compound 0.00316 µM, first compound 10 µM): 3.89% | viability, T/C [3]: 95.3% | viability, T/C [4]: 56.5% | viability, T/C (second compound 0.01 µM, first compound 0.316 µM): 67.8% | viability, T/C (second compound 0.01 µM, first compound 1 µM): 56% | viability, T/C (second compound 0.01 µM, first compound 3.16 µM): 49.7% | viability, T/C (second compound 0.01 µM, first compound 10 µM): 4.85% | viability, T/C [5]: 69.3% | viability, T/C [6]: 52.4% | viability, T/C (second compound 0.0316 µM, first compound 0.316 µM): 69.7% | viability, T/C (second compound 0.0316 µM, first compound 1 µM): 32.1% | viability, T/C (second compound 0.0316 µM, first compound 3.16 µM): 65.4% | viability, T/C (second compound 0.0316 µM, first compound 10 µM): 4.59% | viability, T/C [7]: 38.9% | viability, T/C [8]: 53% | viability, T/C (second compound 0.1 µM, first compound 0.316 µM): 47.8% | viability, T/C (second compound 0.1 µM, first compound 1 µM): 45.9% | viability, T/C (second compound 0.1 µM, first compound 3.16 µM): 38.5% | viability, T/C (second compound 0.1 µM, first compound 10 µM): 5.88% | viability, T/C [9]: 43.5% | viability, T/C [10]: 57.1% | viability, T/C (second compound 0.316 µM, first compound 0.316 µM): 55% | viability, T/C (second compound 0.316 µM, first compound 1 µM): 43.1% | viability, T/C (second compound 0.316 µM, first compound 3.16 µM): 47.3% | viability, T/C (second compound 0.316 µM, first compound 10 µM): 6.23% | viability, T/C [11]: 55.9% | viability, T/C [12]: 44% | viability, T/C (second compound 1 µM, first compound 0.316 µM): 46.9% | viability, T/C (second compound 1 µM, first compound 1 µM): 34% | viability, T/C (second compound 1 µM, first compound 3.16 µM): 50.1% | viability, T/C (second compound 1 µM, first compound 10 µM): 6.69%

From PubChem BioAssay AID1963969 (Molecular Pharmacology Branch, DTP, NCI, 2024)
